Assay results as given in US8647867B2, “Cell cultivation method and cell culture” (National University Corportion Okayama University, priority 2005, dated 2014).

Legend:
Type in all cases: cell-based
[1] = tested on: human hepatocyte; assay: Metabolic ability of ammonia in cultured human hepatocyte; conditions: culture without insert; for ammonia metabolic rate: ammonium sulfate 0.56 mM, after 24 hours
From the text: Donor liver judged to be unsuitable for transplantation in the United States was obtained from National Disease Research Interchange via HUMAN & ANIMAL BRIDGING […] ORGANIZATION laboratory (Ichikawa city, Chiba prefecture, responsible person) in the form of liver block (130 g) which was then separated into hepatocyte in the same manner as for the above-described isolation of porcine hepatocyte in Example 1.

[2] = tested on: human pancreatic islet; assay: Insulin production ability of cultured human pancreatic islet
Method: Healthy isolated human pancreatic islets provided from Alberta University in Canada (those skilled in the art can obtain them from Canada, Alberta University, human pancreatic islet transplantation program, Dr. Jonathan R T. Lakey) were seeded in a T25 10 culture flask.
Insulin production abilities of cultured human pancreatic islet were determined and compared between groups A and B. Using low glucose DMEM (glucose concentration: […]) (available from GIBCO, Oakland, N.J.) supplemented with 10% FCS, nicotineamide 10 mM and penicillin G/streptomycin, cells were cultured for 24 hours until 60% confluency (low glucose). Then, the medium was changed for high glucose DMEM (glucose concentration: […]) (available from GIBCO, Oakland, N.J.) supplemented with 10% FCS, nicotineamide 10 mM and penicillin G/streptomycin, and cells were cultured for 6 hours (high glucose). After high glucose culture, the medium was exchanged for low glucose DMEM and cells were cultured for 6 hours (low glucose (after)). After respective culture operations, the production amount of insulin in the culture medium (μg/l) was determined by an immunostaining method using a rabbit anti-human insulin antibody (available from DakoCytomation K. K., Kyoto, Japan).

[3] = tested on: porcine hepatocyte; assay: Metabolic ability of lidocaine in cultured porcine hepatocyte; design: lidocaine metabolic rate: unit not given beside the values; conditions: for lidocaine metabolic rate: lidocaine 1 mg/ml, after 24 hours
[4] = tested on: porcine hepatocyte; assay: Morphological study of cultured porcine hepatocyte by phase-contrast and electron microscope
Method: Recently, it has been known that when three-dimensional culture of cells is performed on scaffold, cell functions are improved and maintained. […]

[5] = tested on: porcine hepatocyte; assay: Metabolic ability of ammonia in cultured porcine hepatocyte; design: ammonia metabolic rate: unit not given beside the values; conditions: for ammonia metabolic rate: ammonium sulfate 0.56 mM, after 24 hours
[6] = tested on: porcine pancreatic islet; assay: Insulin production ability of cultured porcine pancreatic islet
Method: A process of isolation of porcine pancreatic islet was carried out according to the method for isolation of human pancreatic islet (see, Lakey J R T, Kobayashi N, Shapiro A M J, Ricordi C, Okitsu T: Current human islet isolation protocol. Medical Review Co., Ltd., Osaka, Japan, 2004), and followed a method in a published literature (Yonekawa Y, Matsumono S, Okitsu T, Arata T, Iwanaga Y, Noguchi H, Nagata H, O'Neil J J, Tanaka K: Effective islet isolation method with extremely high islet yields from adult pigs. Cell Transplant. 14(10): 757-62, 2005). Those skilled in the art are capable of isolating pancreatic islet by referring to this literature.
Insulin production abilities of cultured porcine pancreatic islet were determined and compared between groups A and B. Using low glucose DMEM (glucose concentration: […]) (available from 25 GIBCO, Oakland, N.J.) supplemented with 10% FCS, nicotineamide 10 mM and penicillin G/streptomycin, cells were cultured for 24 hours until 60% confluency (low glucose). Then, the medium was changed for high glucose DMEM (glucose concentration: […]) (available from GIBCO, Oakland, N.J.) supplemented with 10% FCS, nicotineamide 10 mM and penicillin G/streptomycin, and cells were cultured for 6 hours (high glucose). After high glucose culture, the medium was exchanged for low glucose DMEM and cells were cultured for 6 hours (low glucose (after)). After each culture operation, the production amount of insulin in the culture medium (μg/l) was determined by an immunostaining method using a rabbit anti-human insulin antibody (available from DakoCytomation K. K., Kyoto, Japan).

[7] = porcine hepatocyte, culture with insert, days 1, 7, 14 and 21
[8] = porcine hepatocyte, culture without insert, days 1, 7 and 14

## CC(=O)N[C@@H](CCCNC(=N)N)C(=O)N[C@@H](C)C(=O)N[C@@H](CC(=O)O)C(=O)N[C@@H](C)C(=O)N[C@@H](CCCNC(=N)N)C(=O)N[C@@H](C)C(=O)N[C@@H](CC(=O)O)C(=O)N[C@@H](C)C(=O)N[C@@H](CCCNC(=N)N)C(=O)N[C@@H](C)C(=O)N[C@@H](CC(=O)O)C(=O)N[C@@H](C)C(=O)N[C@@H](CCCNC(=N)N)C(=O)N[C@@H](C)C(=O)N[C@@H](CC(=O)O)C(=O)N[C@@H](C)C(N)=O [Group A, Ac-(RADA)4-CONH2]
[1]; Table 4(a), day 1 of culture
  ammonia metabolic rate: 45.0
[1]; Table 4(a), day 3 of culture
  ammonia metabolic rate: 32.8
[1]; Table 4(a), day 5 of culture
  ammonia metabolic rate: 20.4
[1]; Table 4(b), day 1 of culture
  ammonia metabolic rate: 45.0
[1]; Table 4(b), day 3 of culture
  ammonia metabolic rate: 32.8
[1]; Table 4(b), day 5 of culture
  ammonia metabolic rate: 20.4
[1]; days 1, 3 and 5
  ammonia metabolic rate as compared with collagen type I (monolayer) (group B): significantly better
  ammonia metabolic rate as compared with collagen type I (monolayer) (group B) and Matrigel (group C): significantly better
[2]; human islets (10 seeded), day 1 of culture, low glucose (100 g/l, 24 hours)
  production amount of insulin in the culture medium: 0.60 µg/L
[2]; human islets, day 1 of culture, high glucose (450 g/l, 6 hours)
  production amount of insulin in the culture medium: 1.89 µg/L
[2]; human islets, day 1 of culture, low glucose (after), 6 hours
  production amount of insulin in the culture medium: 1.13 µg/L
[2]; human islets, day 3 of culture, high glucose (450 g/l, 6 hours)
  production amount of insulin in the culture medium: 1.68 µg/L
[2]; human islets, day 3 of culture, low glucose (100 g/l, 24 hours)
  production amount of insulin in the culture medium: 0.58 µg/L
[2]; human islets, day 3 of culture, low glucose (after), 6 hours
  production amount of insulin in the culture medium: 1.11 µg/L
[2]; human islets, day 5 of culture, high glucose (450 g/l, 6 hours)
  production amount of insulin in the culture medium: 1.43 µg/L
[2]; human islets, day 5 of culture, low glucose (100 g/l, 24 hours)
  production amount of insulin in the culture medium: 0.51 µg/L
[2]; human islets, day 5 of culture, low glucose (after), 6 hours
  production amount of insulin in the culture medium: 1.10 µg/L
[2]; human islets, day 7 of culture, high glucose (450 g/l, 6 hours)
  production amount of insulin in the culture medium: 0.76 µg/L
[2]; human islets, day 7 of culture, low glucose (100 g/l, 24 hours)
  production amount of insulin in the culture medium: 0.41 µg/L
[2]; human islets, day 7 of culture, low glucose (after), 6 hours
  production amount of insulin in the culture medium: 0.54 µg/L
[2]; human pancreatic islet, day 7 of culture
  amount of insulin secreted in high glucose concentration (response to glucose concentration): increased
[3]; Table 2(a), culture without insert, day 1 of culture
  lidocaine metabolic rate: 40.0
[3]; Table 2(a), culture without insert, day 7 of culture
  lidocaine metabolic rate: 31.9
[3]; Table 2(a), culture without insert, day 14 of culture
  lidocaine metabolic rate: 19.1
[3]; Table 2(c), culture with insert, day 1 of culture
  lidocaine metabolic rate: 44.0
[3]; Table 2(c), culture with insert, day 7 of culture
  lidocaine metabolic rate: 36.9
[3]; Table 2(c), culture with insert, day 14 of culture
  lidocaine metabolic rate: 32.4
[3]; Table 2(c), culture with insert, day 21 of culture
  lidocaine metabolic rate: 30.2
[3]; Table 2b, culture without insert, day 1 of culture
  lidocaine metabolic rate: 40.8
[3]; Table 2b, culture without insert, day 7 of culture
  lidocaine metabolic rate: 32.2
[3]; Table 2b, culture without insert, day 14 of culture
  lidocaine metabolic rate: 21.0
[3]; [7]
  lidocaine metabolic rate as compared with collagen type I (monolayer) (group B), Matrigel (group C) and collagen sandwich (group D): significantly better
[3]; [8]
  lidocaine metabolic rate as compared with collagen type I (monolayer) (group B): significantly better
  lidocaine metabolic rate as compared with collagen type I (monolayer) (group B) and Matrigel (group C): significantly better
[4]; culture with insert, day 3 of culture, transmission electron microscope
  formation of cell adhesion apparatus and bile canaliculi between hepatocytes: a cell adhesion apparatus 5 and a bile canaliculi 6 were formed between hepatocytes
[4]; culture without insert, phase-contrast microscope days 1, 7, 14, electron microscope day 5
  formation of three-dimensional spheroid by hepatocytes: formation of three-dimensional spheroid by hepatocytes was confirmed
[5]; Table 1(a), culture without insert, day 1 of culture
  ammonia metabolic rate: 58.6
[5]; Table 1(a), culture without insert, day 7 of culture
  ammonia metabolic rate: 43.8
[5]; Table 1(a), culture without insert, day 14 of culture
  ammonia metabolic rate: 26.4
[5]; Table 1(c), culture with insert, day 1 of culture
  ammonia metabolic rate: 61.6
[5]; Table 1(c), culture with insert, day 7 of culture
  ammonia metabolic rate: 49.6
[5]; Table 1(c), culture with insert, day 14 of culture
  ammonia metabolic rate: 38.2
[5]; Table 1(c), culture with insert, day 21 of culture
  ammonia metabolic rate: 36.1
[5]; Table 1b, culture without insert, day 1 of culture
  ammonia metabolic rate: 59.8
[5]; Table 1b, culture without insert, day 7 of culture
  ammonia metabolic rate: 44.3
[5]; Table 1b, culture without insert, day 14 of culture
  ammonia metabolic rate: 33.3
[5]; [7]
  ammonia metabolic rate as compared with collagen type I (monolayer) (group B), Matrigel (group C) and collagen sandwich (group D): significantly better
[5]; [8]
  ammonia metabolic rate as compared with collagen type I (monolayer) (group B): significantly better
  ammonia metabolic rate as compared with collagen type I (monolayer) (group B) and Matrigel (group C): significantly better
[6]; porcine islets (10 seeded), day 0 of culture, low glucose (100 g/l, 24 hours)
  production amount of insulin in the culture medium: 0.80 µg/L
[6]; porcine islets, day 0 of culture, high glucose (450 g/l, 6 hours)
  production amount of insulin in the culture medium: 1.62 µg/L
[6]; porcine islets, day 0 of culture, low glucose (after), 6 hours
  production amount of insulin in the culture medium: 1.01 µg/L
[6]; porcine islets, day 3 of culture, high glucose (450 g/l, 6 hours)
  production amount of insulin in the culture medium: 1.48 µg/L
[6]; porcine islets, day 3 of culture, low glucose (100 g/l, 24 hours)
  production amount of insulin in the culture medium: 0.80 µg/L
[6]; porcine islets, day 3 of culture, low glucose (after), 6 hours
  production amount of insulin in the culture medium: 0.90 µg/L
[6]; porcine islets, day 5 of culture, high glucose (450 g/l, 6 hours)
  production amount of insulin in the culture medium: 1.24 µg/L
[6]; porcine islets, day 5 of culture, low glucose (100 g/l, 24 hours)
  production amount of insulin in the culture medium: 0.69 µg/L
[6]; porcine islets, day 5 of culture, low glucose (after), 6 hours
  production amount of insulin in the culture medium: 0.78 µg/L
[6]; porcine islets, day 7 of culture, high glucose (450 g/l, 6 hours)
  production amount of insulin in the culture medium: 0.90 µg/L
[6]; porcine islets, day 7 of culture, low glucose (100 g/l, 24 hours)
  production amount of insulin in the culture medium: 0.49 µg/L
[6]; porcine islets, day 7 of culture, low glucose (after), 6 hours
  production amount of insulin in the culture medium: 0.71 µg/L
[6]; porcine pancreatic islet, day 5 of culture
  amount of insulin secreted in high glucose concentration (response to glucose concentration): increased
